# Target: T1, recombinant α-mannosidase (LAMAN) (Homo sapiens, UniProt O00754)
# T1 construct: purchased Zymenex, Hillerod, DK
# T1 sequence (O00754 50-1011): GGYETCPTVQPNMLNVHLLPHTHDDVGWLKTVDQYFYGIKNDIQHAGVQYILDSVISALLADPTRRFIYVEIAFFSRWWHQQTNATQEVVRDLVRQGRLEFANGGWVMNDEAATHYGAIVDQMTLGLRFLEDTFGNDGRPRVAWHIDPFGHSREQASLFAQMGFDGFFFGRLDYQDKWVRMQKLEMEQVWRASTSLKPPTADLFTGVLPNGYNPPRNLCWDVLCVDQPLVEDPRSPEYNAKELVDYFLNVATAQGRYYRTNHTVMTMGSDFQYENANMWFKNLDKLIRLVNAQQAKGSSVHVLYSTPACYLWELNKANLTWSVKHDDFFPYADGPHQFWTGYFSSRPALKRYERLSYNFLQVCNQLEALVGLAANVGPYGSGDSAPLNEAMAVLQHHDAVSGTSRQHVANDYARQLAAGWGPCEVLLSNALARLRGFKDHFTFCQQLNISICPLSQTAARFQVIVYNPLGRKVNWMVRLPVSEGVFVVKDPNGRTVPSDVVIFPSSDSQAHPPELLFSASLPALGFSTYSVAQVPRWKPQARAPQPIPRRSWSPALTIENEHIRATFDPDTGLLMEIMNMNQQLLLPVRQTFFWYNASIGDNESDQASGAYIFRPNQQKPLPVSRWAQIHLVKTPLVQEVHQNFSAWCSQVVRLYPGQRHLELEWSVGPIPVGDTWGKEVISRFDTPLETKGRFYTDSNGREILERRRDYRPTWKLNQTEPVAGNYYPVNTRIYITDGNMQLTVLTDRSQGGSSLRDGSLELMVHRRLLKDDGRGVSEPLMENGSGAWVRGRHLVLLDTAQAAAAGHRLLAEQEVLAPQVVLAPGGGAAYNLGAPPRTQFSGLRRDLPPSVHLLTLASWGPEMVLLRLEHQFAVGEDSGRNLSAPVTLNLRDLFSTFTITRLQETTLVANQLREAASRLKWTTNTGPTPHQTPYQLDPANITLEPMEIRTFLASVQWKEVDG
# Assay: peptide pulldown of recombinant LAMAN
# Format: binding
# Conditions: neutral pH
# Experimental: FIG. 6: Characterization of a helical LIMP-2-derived peptide. […] B) In vitro peptide pulldown assay: helix 5 peptides were incubated with recombinant LAMAN and bovine serum albumin (BSA). INPUT and BOUND fractions were loaded onto SDS-PAGE and proteins visualized by coomassie staining (CBB). C) Densitometry of LAMAN and BSA protein bound to peptide, normalized to protein fraction bound to beads only (buffer; n=2-3). D) and E) Activity assay of recombinant (D) GC and (E) LAMAN incubated with different excess molarities (1×-10×) of helix 5 peptide (n=β-5) and LIMP-2 ectodomain (n=4). GC activities were normalized and statistical analyses compared to 0 input of BSA/helix 5 peptide. F) Peptide-pulldown of GC constructs overexpressed in N2a cells with subsequent Western blot analysis (α-hGC) utilizing helix 5 and the 3×D control peptide as a negative binding control. G) Densitometry of GC protein bound to peptides; each construct is normalized to buffer only. H) Live-cell lysosomal GC activity of H4 cells after uptake of helix 5 and 3×D TAT peptides. GC activity was measures every 30 minutes up to 3.5 hours. Cells were treated with DMSO or the “lysosomal inhibitor” bafilomycinA1. […] Lysosomal activity is calculated by subtracting the AUC of DMSO with the AUC of bafilomycinA1 treated samples (n=4). […] GC activity was measured from 16-74 hours and is shown in mU/mg (n=3). […]
substance,measurement,value
Biotin-Ttds-LREIIEAMLKAYQQKLFVTHTVDE [helix 5 peptide],interaction with recombinant α-mannosidase (LAMAN),no interaction
